Where two headings read alike, the source gives them in different places.
Legend:
[1] = Residual moisture of the lyophilised salt; assay type: physicochemical
[2] = physchem; details: for DEGRADATION AT 45° C. AFTER 120 days: 2880 h; for DEGRADATION AT 45° C. AFTER 180 days: 4320 h; for DEGRADATION AT 45° C. AFTER 240 days: 5760 h; for DEGRADATION AT 45° C. AFTER 360 days: 8640 h; for DEGRADATION AT 45° C. AFTER 60 days: 1440 h
Protocol: The residual SAM percentage at the times indicated was determined by the new method described hereinafter, which ensures maximum accuracy of measurements in that it enables the SAM to be totally separated from all possible degradation products. The present method for determining the SAM is based on the use of HPLC.

[3] = prior art salts, cited from earlier work
[4] = Wide pharmacological screening trial; details: independent of the anion bonded to the SAM

Row | Compound | residual moisture ([1]; Tables 1 to 4) [%] | DEGRADATION AT 45° C. AFTER 240 days [2] [%] | DEGRADATION AT 45° C. AFTER 360 days [2] [%] | further results
1 | C[S+](CCC(N)C(=O)[O-])CC1OC(n2cnc3c(N)ncnc32)C(O)C1O (stereo not drawn) [drawing 5, n=2] | 0.5 | 100 | 100 | DEGRADATION AT 45° C. AFTER 120 days [2]: 100%; DEGRADATION AT 45° C. AFTER 180 days [2]: 100%
2 | C[S+](CCC(N)C(=O)[O-])CC1OC(n2cnc3c(N)ncnc32)C(O)C1O (stereo not drawn) [drawing 6, n=1] | 1 | – | – | –
3 | C[S+](CCC(N)C(=O)[O-])CC1OC(n2cnc3c(N)ncnc32)C(O)C1O (stereo not drawn) [drawing 5, n=6] | 2 | – | – | –
4 | C[S+](CCC(N)C(=O)[O-])CC1OC(n2cnc3c(N)ncnc32)C(O)C1O (stereo not drawn) [drawing 5, n=3] | 0.8 | 100 | 100 | temperature up to which the salt is stable ([3]; listed as triparatoluene sulphonate): up to 25 °C
5 | C[S+](CCC(N)C(=O)[O-])CC1OC(n2cnc3c(N)ncnc32)C(O)C1O (stereo not drawn) [drawing 6, n=2] | 1.5 | – | – | –
6 | C[S+](CCC(N)C(=O)[O-])CC1OC(n2cnc3c(N)ncnc32)C(O)C1O (stereo not drawn) [SAM.1.5 H2 SO4.n CH3 SO3 H, n=2] | 1.5 | – | – | –
7 | C[S+](CCC(N)C(=O)[O-])CC1OC(n2cnc3c(N)ncnc32)C(O)C1O (stereo not drawn) [SAM.1.5 H2 SO4.n CH3 SO3 H, n=1] | 1 | – | – | –
8 | C[S+](CCC(N)C(=O)[O-])CC1OC(n2cnc3c(N)ncnc32)C(O)C1O (stereo not drawn) [SAM.1.5 H2 SO4.n CH3 SO3 H, n=3] | 2 | – | – | –
9 | C[S+](CCC(N)C(=O)[O-])CC1OC(n2cnc3c(N)ncnc32)C(O)C1O (stereo not drawn) [drawing 5, n=1] | 0.2 | 100 | 100 | DEGRADATION AT 45° C. AFTER 60 days [2]: 100%; DEGRADATION AT 45° C. AFTER 120 days [2]: 100%; DEGRADATION AT 45° C. AFTER 180 days [2]: 100%
10 | C[S+](CCC(N)C(=O)[O-])CC1OC(n2cnc3c(N)ncnc32)C(O)C1O (stereo not drawn) [disulphatediparatoluene sulphonate, reference compound] | – | – | – | temperature up to which the salt is stable [3]: up to 45 °C
11 | C[S+](CCC(N)C(=O)[O-])CC1OC(n2cnc3c(N)ncnc32)C(O)C1O (stereo not drawn) [SAM.n CH3 SO3 H, n=3] | 0.8 | 100 | 100 | –
12 | C[S+](CCC(N)C(=O)[O-])CC1OC(n2cnc3c(N)ncnc32)C(O)C1O (stereo not drawn) [SAM.n CH3 SO3 H, n=2] | 0.5 | 100 | 100 | DEGRADATION AT 45° C. AFTER 120 days [2]: 100%; DEGRADATION AT 45° C. AFTER 180 days [2]: 100%
13 | C[S+](CCC(N)C(=O)[O-])CC1OC(n2cnc3c(N)ncnc32)C(O)C1O (stereo not drawn) [SAM.n CH3 SO3 H, n=1] | 0.2 | 100 | 100 | DEGRADATION AT 45° C. AFTER 60 days [2]: 100%; DEGRADATION AT 45° C. AFTER 120 days [2]: 100%; DEGRADATION AT 45° C. AFTER 180 days [2]: 100%
14 | C[S+](CCC(N)C(=O)[O-])CC1OC(n2cnc3c(N)ncnc32)C(O)C1O (stereo not drawn) [drawing 6, n=3] | 2 | – | – | –
15 | C[S+](CCC(N)C(=O)[O-])CC1OC(n2cnc3c(N)ncnc32)C(O)C1O (stereo not drawn) [SAM.n CH3 SO3 H, n=4] | 1 | – | – | –
16 | C[S+](CCC(N)C(=O)[O-])CC1OC(n2cnc3c(N)ncnc32)C(O)C1O (stereo not drawn) [drawing 5, n=4] | 1 | – | – | –
17 | C[S+](CCC(N)C(=O)[O-])CC1OC(n2cnc3c(N)ncnc32)C(O)C1O (stereo not drawn) [SAM.5CH3 --C6 H4 --SO3 H] | – | – | – | residual moisture ([1]; Tables 1 to 4, n=5): 1.5%
18 | C[S+](CCC(N)C(=O)[O-])CC1OC(n2cnc3c(N)ncnc32)C(O)C1O (stereo not drawn) [SAM.n CH3 SO3 H, n=6] | 2 | – | – | –
19 | C[S+](CCC(N)C(=O)[O-])CC1OC(n2cnc3c(N)ncnc32)C(O)C1O (stereo not drawn) [SAM.5CH3 SO3 H] | – | – | – | residual moisture ([1]; Tables 1 to 4, listed as SAM.n CH3 SO3 H, n=5): 1.5%; residual moisture ([1]; with or without lyophilisation support (Tables 5, 6)): 1.5%; degraded at 8640 h ([2]; DEGRADATION AT 45° C. AFTER 360 DAYS): 5%; activity and toxicity characteristics [4]: highly interesting activity and toxicity characteristics
